Data published in US20220356174A1, “PYRIDIN-2-ONE COMPOUNDS USEFUL AS SMARCA2 ANTAGONISTS” (Epizyme, Inc., priority 2018, published 2022).

system: H358 cells; assay: High-throughput proliferation (HTP) assay for H358 cells (CellTiter-Glo, 7 days); type: cell-based; conditions: Homo sapiens, NCI-H358, 168 h, read-out: H358 SMARCA2 IC50
Method in brief: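 Cells were plated at 1,000 cells/well in RPMI 1640 + 10% HI-FBS + 1% pen/strep on pre-dispensed compound and incubated 7 days at 37 °C, 5% CO2. Viability was read as ATP luminescence with CellTiter-Glo after 30 min at RT. DMSO served as 0% and 10 µM doxorubicin as 100% inhibition for EC50/IC50.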

| Compound | IC50 [µM] |
| --- | --- |
| CNC(=O)c1cc(C#Cc2cc(C(=O)Nc3cc(F)c(=O)n(CC(F)F)c3)sc2Cl)nn1C [Compound 154c] | > 10 |
| Cn1ccc(C#Cc2cc(C(=O)Nc3cc(F)c(=O)n(CC(F)F)c3)sc2Cl)cc1=O [Compound 65d] | > 10 |
| O=C(Nc1cc(F)c(=O)n(CC(F)F)c1)c1cc(C#Cc2cn3c(n2)CNCC3)c(Cl)s1 [Compound 147c] | > 10 |
| CNC(=O)c1cncc(C#Cc2cc(C(=O)Nc3cc(F)c(=O)n(CC(F)F)c3)sc2Cl)c1 [Compound 129c] | > 10 |
| CN1CC(C#Cc2cc(C(=O)Nc3cc(F)c(=O)n(CC(F)F)c3)sc2Cl)CCC1=O (stereo not drawn) [Compound 118d] | > 10 |
| O=C(Nc1cc(F)c(=O)n(CC(F)F)c1)c1cc(Cl)c(Cl)s1 [Compound 47c] | > 10 |
| O=C(Nc1cc(F)c(=O)n(CC(F)F)c1)c1cc(C#Cc2csc(C(F)(F)F)n2)c(Cl)s1 [Compound 126c] | > 10 |
| NC(=O)c1ccc(C#Cc2cc(C(=O)Nc3cc(F)c(=O)n(CC(F)F)c3)sc2Cl)cc1 [Compound 68c] | > 10 |
| Cn1cc(C#Cc2cc(C(=O)Nc3cc(F)c(=O)n(CC(F)F)c3)sc2Cl)cn1 [Compound 5c] | > 10 |
| O=C(Nc1cc(F)c(=O)n(CC(F)F)c1)c1cc(C#CC2COC2)c(C(F)F)s1 [Compound 80c] | > 10 |
| N#Cc1sc(C(=O)Nc2cc(F)c(=O)n(CC(F)F)c2)cc1C#Cc1ccncc1 [Compound 134c] | 3.89 |
| CN1CCCC(C#Cc2cc(C(=O)Nc3cc(F)c(=O)n(CC(F)F)c3)sc2Cl)C1 (stereo not drawn) [Compound 140d] | > 10 |
| O=C(Nc1cc(F)c(=O)n(CC(F)F)c1)c1cc(C#CC2CNCCO2)c(Cl)s1 (stereo not drawn) [Compound 109d] | > 10 |
| O=C(Nc1cc(F)c(=O)n(CC(F)F)c1)c1sc(C(F)(F)F)cc1Cl [Compound 48c] | > 10 |
| O=C(Nc1cc(F)c(=O)n(CC(F)F)c1)c1cc(C#Cc2cn3c(n2)COCC3)c(Cl)s1 [Compound 90d] | > 10 |

target: T1, FL-SMARCA2 (full-length human SMARCA2 isoform 1) (Homo sapiens, UniProt P51531); assay: SMARCA2 ATPase activity assay (ADP-Glo, chicken mononucleosome substrate); type: biochemical; conditions: Table 3c.1; ATPase assay, enzyme 5 nM, ATP 250 uM, chicken mononucleosome 10 nM, 30 min preincubation
T1 construct: FLAG tag (YKDDDDK) (C); made in house; host or cells: Sf21 insect cells (baculovirus, pFastBacI)
T1 sequence (P51531 with tags, fused parts or gaps): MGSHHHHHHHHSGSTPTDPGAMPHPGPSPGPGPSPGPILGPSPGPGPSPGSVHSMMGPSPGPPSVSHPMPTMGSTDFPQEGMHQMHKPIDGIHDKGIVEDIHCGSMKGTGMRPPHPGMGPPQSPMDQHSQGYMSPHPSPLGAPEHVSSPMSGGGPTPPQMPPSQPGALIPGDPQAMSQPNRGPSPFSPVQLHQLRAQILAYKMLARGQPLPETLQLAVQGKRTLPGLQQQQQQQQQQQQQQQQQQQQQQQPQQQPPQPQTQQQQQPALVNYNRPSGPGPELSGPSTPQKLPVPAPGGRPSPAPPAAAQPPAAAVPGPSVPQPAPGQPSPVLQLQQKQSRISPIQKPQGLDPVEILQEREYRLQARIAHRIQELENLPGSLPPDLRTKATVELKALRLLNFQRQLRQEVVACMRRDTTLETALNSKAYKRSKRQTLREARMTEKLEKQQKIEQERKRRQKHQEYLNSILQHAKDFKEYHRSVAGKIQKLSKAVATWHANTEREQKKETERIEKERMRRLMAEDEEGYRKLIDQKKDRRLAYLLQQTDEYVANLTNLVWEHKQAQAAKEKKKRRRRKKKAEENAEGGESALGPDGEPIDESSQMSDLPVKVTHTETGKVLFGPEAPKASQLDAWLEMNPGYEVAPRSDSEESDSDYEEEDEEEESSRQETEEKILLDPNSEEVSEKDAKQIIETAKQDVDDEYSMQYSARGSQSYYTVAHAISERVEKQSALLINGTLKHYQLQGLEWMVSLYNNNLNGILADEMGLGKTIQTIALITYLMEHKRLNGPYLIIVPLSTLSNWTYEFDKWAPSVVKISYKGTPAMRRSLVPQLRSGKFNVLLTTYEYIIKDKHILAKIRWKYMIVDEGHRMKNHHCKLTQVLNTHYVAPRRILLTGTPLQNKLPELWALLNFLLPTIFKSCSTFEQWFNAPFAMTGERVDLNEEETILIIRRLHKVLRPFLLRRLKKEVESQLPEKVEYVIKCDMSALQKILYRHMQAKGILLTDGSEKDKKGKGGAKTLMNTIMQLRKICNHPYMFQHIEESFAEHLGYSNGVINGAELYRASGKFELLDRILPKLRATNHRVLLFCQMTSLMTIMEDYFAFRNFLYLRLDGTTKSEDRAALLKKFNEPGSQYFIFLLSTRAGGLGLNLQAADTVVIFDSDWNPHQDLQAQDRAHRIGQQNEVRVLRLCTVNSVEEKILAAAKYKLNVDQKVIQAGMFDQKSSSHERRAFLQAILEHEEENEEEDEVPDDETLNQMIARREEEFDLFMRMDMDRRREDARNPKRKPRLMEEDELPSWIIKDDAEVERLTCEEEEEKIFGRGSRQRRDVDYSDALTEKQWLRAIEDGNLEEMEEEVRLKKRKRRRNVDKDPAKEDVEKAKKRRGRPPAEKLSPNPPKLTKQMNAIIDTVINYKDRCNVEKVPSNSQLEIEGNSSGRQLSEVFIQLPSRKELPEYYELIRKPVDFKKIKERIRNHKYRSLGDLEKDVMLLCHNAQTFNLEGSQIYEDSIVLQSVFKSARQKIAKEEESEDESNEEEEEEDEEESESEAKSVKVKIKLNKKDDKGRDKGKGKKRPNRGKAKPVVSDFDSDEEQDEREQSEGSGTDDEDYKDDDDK

| Compound | IC50 [µM] |
| --- | --- |
| CNC(=O)c1cc(C#Cc2cc(C(=O)Nc3cc(F)c(=O)n(CC(F)F)c3)sc2Cl)nn1C [Compound 154c] | 0.0711 |
| O=C(Nc1cc(F)c(=O)n(CC(F)F)c1)c1cc(C#Cc2cn3c(n2)CNCC3)c(Cl)s1 [Compound 147c] | 5.24 |
| CNC(=O)c1cncc(C#Cc2cc(C(=O)Nc3cc(F)c(=O)n(CC(F)F)c3)sc2Cl)c1 [Compound 129c] | 0.0513 |
| O=C(Nc1cc(F)c(=O)n(CC(F)F)c1)c1cc(Cl)c(Cl)s1 [Compound 47c] | 0.065 |
| O=C(Nc1cc(F)c(=O)n(CC(F)F)c1)c1cc(C#Cc2csc(C(F)(F)F)n2)c(Cl)s1 [Compound 126c] | 0.235 |
| NC(=O)c1ccc(C#Cc2cc(C(=O)Nc3cc(F)c(=O)n(CC(F)F)c3)sc2Cl)cc1 [Compound 68c] | 0.0671 |
| Cn1cc(C#Cc2cc(C(=O)Nc3cc(F)c(=O)n(CC(F)F)c3)sc2Cl)cn1 [Compound 5c] | 0.0285 |
| O=C(Nc1cc(F)c(=O)n(CC(F)F)c1)c1cc(C#CC2COC2)c(C(F)F)s1 [Compound 80c] | 0.161 |
| N#Cc1sc(C(=O)Nc2cc(F)c(=O)n(CC(F)F)c2)cc1C#Cc1ccncc1 [Compound 134c] | 0.00812 |
| O=C(Nc1cc(F)c(=O)n(CC(F)F)c1)c1sc(C(F)(F)F)cc1Cl [Compound 48c] | 25.3 |

same assay, conditions: Table 3.1; ATPase assay, enzyme 5 nM, ATP 250 uM, chicken mononucleosome 10 nM, 30 min preincubation

| Compound | IC50 [µM] |
| --- | --- |
| Cn1c(C(=O)Nc2cc(F)c(=O)n(CC(F)(F)F)c2)cc(Cl)c1Cl [Compound 144] | 0.245 |

same assay, conditions: Table 3d.1; ATPase assay, enzyme 5 nM, ATP 250 uM, chicken mononucleosome 10 nM, 30 min preincubation; read-out: FL-SMARCA2 IC>50

| Compound | IC50 [µM] |
| --- | --- |
| Cn1ccc(C#Cc2cc(C(=O)Nc3cc(F)c(=O)n(CC(F)F)c3)sc2Cl)cc1=O [Compound 65d] | 2.36 |
| CN1CC(C#Cc2cc(C(=O)Nc3cc(F)c(=O)n(CC(F)F)c3)sc2Cl)CCC1=O (stereo not drawn) [Compound 118d] | 0.245 |
| CN1CCCC(C#Cc2cc(C(=O)Nc3cc(F)c(=O)n(CC(F)F)c3)sc2Cl)C1 (stereo not drawn) [Compound 140d] | 0.772 |
| O=C(Nc1cc(F)c(=O)n(CC(F)F)c1)c1cc(C#CC2CNCCO2)c(Cl)s1 (stereo not drawn) [Compound 109d] | 1.06 |
| O=C(Nc1cc(F)c(=O)n(CC(F)F)c1)c1cc(C#Cc2cn3c(n2)COCC3)c(Cl)s1 [Compound 90d] | 1.39 |

system: A549 cells; assay: High-throughput proliferation (HTP) assay for A549 cells (CellTiter-Glo, 7 days); type: cell-based; conditions: Homo sapiens, 168 h, read-out: A549 SMARCA2 IC50
Method in brief: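 Seven-day growth of A549 (62.5 cells/well, F12K with 10% HI-FBS, 37° C.) with compound, read by CellTiter-Glo ATP luminescence. Percent inhibition scaled between DMSO wells and 10 μM Doxorubicin wells, then fitted for EC50 and IC50.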

| Compound | IC50 [µM] |
| --- | --- |
| CNC(=O)c1cc(C#Cc2cc(C(=O)Nc3cc(F)c(=O)n(CC(F)F)c3)sc2Cl)nn1C [Compound 154c] | > 10 |
| Cn1ccc(C#Cc2cc(C(=O)Nc3cc(F)c(=O)n(CC(F)F)c3)sc2Cl)cc1=O [Compound 65d] | > 10 |
| O=C(Nc1cc(F)c(=O)n(CC(F)F)c1)c1cc(C#Cc2cn3c(n2)CNCC3)c(Cl)s1 [Compound 147c] | > 10 |
| CNC(=O)c1cncc(C#Cc2cc(C(=O)Nc3cc(F)c(=O)n(CC(F)F)c3)sc2Cl)c1 [Compound 129c] | > 10 |
| CN1CC(C#Cc2cc(C(=O)Nc3cc(F)c(=O)n(CC(F)F)c3)sc2Cl)CCC1=O (stereo not drawn) [Compound 118d] | 7.18 |
| O=C(Nc1cc(F)c(=O)n(CC(F)F)c1)c1cc(Cl)c(Cl)s1 [Compound 47c] | 1.41 |
| O=C(Nc1cc(F)c(=O)n(CC(F)F)c1)c1cc(C#Cc2csc(C(F)(F)F)n2)c(Cl)s1 [Compound 126c] | 4.01 |
| NC(=O)c1ccc(C#Cc2cc(C(=O)Nc3cc(F)c(=O)n(CC(F)F)c3)sc2Cl)cc1 [Compound 68c] | 5.91 |
| Cn1cc(C#Cc2cc(C(=O)Nc3cc(F)c(=O)n(CC(F)F)c3)sc2Cl)cn1 [Compound 5c] | 1.16 |
| O=C(Nc1cc(F)c(=O)n(CC(F)F)c1)c1cc(C#CC2COC2)c(C(F)F)s1 [Compound 80c] | 3.98 |
| N#Cc1sc(C(=O)Nc2cc(F)c(=O)n(CC(F)F)c2)cc1C#Cc1ccncc1 [Compound 134c] | 0.909 |
| CN1CCCC(C#Cc2cc(C(=O)Nc3cc(F)c(=O)n(CC(F)F)c3)sc2Cl)C1 (stereo not drawn) [Compound 140d] | 7.18 |
| O=C(Nc1cc(F)c(=O)n(CC(F)F)c1)c1cc(C#CC2CNCCO2)c(Cl)s1 (stereo not drawn) [Compound 109d] | > 10 |
| O=C(Nc1cc(F)c(=O)n(CC(F)F)c1)c1sc(C(F)(F)F)cc1Cl [Compound 48c] | > 10 |
| O=C(Nc1cc(F)c(=O)n(CC(F)F)c1)c1cc(C#Cc2cn3c(n2)COCC3)c(Cl)s1 [Compound 90d] | > 10 |

target: T2, SMARCA2 (Homo sapiens, UniProt P51531); assay: SMARCA2 FRET nucleosome remodeling activity assay; type: biochemical; conditions: not given
T2 construct: FLAG tag (YKDDDDK) (C); made in house; host or cells: Sf21 insect cells (baculovirus, pFastBacI)
Protocol: The SMARCA2 remodeling assay was initiated by the addition of 2 uL of a nucleosome remodeling assay substrate and ATP mixture (final volume=10 uL). […] The assays were terminated after 15 minutes by the addition of 2 uL EDTA (final concentration of 25 mM). The SMARCA2 remodeling activity was determined by measuring the fluorescence ratio of the Cy3 and Cy5 labels ([…]). The remodeling of the nucleosome substrate causes an increase in the spacing between the Cy3 and Cy5 labels and therefore a reduction in FRET and an increase in Cy3/Cy5 fluorescence ratio.

T2 sequence (P51531 with tags, fused parts or gaps): as above

| Compound | IC50 [µM] |
| --- | --- |
| Cn1c(C(=O)Nc2cc(F)c(=O)n(CC(F)(F)F)c2)cc(Cl)c1Cl [Compound 144] | 1.27 |

target: FL-SMARCA4 (Homo sapiens, UniProt P51532); assay: SMARCA4 ATPase activity assay (ADP-Glo, chicken mononucleosome substrate); conditions: FL-SMARCA4 IC50
Sequence (P51532 whole entry): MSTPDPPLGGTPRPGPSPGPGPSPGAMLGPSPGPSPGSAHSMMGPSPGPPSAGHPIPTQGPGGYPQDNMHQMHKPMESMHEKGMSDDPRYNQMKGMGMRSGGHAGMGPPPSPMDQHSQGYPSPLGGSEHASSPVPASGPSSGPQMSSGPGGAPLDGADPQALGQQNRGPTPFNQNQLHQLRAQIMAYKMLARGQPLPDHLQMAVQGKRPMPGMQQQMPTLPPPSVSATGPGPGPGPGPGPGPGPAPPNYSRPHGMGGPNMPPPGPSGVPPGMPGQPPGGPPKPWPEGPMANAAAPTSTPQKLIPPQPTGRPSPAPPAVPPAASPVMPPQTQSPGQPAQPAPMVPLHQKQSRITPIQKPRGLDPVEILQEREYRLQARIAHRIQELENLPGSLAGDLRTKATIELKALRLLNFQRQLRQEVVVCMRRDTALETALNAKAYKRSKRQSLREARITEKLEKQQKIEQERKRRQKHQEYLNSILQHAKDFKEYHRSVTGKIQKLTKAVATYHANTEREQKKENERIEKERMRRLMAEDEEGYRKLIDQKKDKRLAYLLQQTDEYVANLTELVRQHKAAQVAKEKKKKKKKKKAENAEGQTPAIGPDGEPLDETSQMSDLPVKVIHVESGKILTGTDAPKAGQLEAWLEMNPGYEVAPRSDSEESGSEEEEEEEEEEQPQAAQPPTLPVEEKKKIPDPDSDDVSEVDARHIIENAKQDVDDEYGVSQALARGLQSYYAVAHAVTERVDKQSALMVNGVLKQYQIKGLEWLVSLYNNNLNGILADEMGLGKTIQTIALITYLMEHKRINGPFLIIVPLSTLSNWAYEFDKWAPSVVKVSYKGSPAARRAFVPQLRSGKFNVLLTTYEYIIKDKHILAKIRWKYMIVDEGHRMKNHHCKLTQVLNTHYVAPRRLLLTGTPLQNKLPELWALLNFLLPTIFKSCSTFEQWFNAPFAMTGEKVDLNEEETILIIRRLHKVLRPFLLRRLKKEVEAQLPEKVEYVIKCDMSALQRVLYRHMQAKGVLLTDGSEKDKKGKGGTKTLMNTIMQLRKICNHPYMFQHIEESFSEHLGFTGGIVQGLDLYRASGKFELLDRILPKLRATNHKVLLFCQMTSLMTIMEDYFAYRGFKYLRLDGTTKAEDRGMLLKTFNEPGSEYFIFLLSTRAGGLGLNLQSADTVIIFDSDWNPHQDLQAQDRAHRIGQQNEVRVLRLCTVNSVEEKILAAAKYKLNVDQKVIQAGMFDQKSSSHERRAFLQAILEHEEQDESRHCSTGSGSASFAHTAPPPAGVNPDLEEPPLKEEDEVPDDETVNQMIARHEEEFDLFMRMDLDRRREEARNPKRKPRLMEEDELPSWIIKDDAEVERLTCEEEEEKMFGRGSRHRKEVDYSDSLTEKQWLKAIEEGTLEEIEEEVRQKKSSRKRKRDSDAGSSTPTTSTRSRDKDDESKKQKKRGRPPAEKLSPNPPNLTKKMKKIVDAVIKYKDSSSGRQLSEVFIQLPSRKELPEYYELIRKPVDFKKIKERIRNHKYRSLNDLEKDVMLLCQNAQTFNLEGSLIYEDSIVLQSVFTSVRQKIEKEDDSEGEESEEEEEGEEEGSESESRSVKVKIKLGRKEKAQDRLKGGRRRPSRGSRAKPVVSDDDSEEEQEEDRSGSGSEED
Protocol: Substrates. Chicken erythrocyte mononucleosomes were prepared from fresh chicken blood collected into anticoagulant and filtered through cheesecloth. The filtered chicken blood was diluted in buffer A (10 mM Tris-HCl, pH 7.4, 10 mM NaCl, 3 mM MgCl2) and centrifuged at 500 g for 15 minutes to collect the erythrocytes. Erythrocyte nuclei were harvested by resuspending the pellets in buffer A containing 0.3% NP-40 detergent. The mixture was stirred with a magnetic bar for 10 mins and centrifuged at 4000 g for 10 minutes. Resuspension, stirring and centrifugation was repeated twice more before the final nuclei pellet was resuspended in buffer A+0.3% NP-40 and stored at −80° C. until purification. For nucleosome purification, nuclei aliquots were rapidly thawed and washed five times with buffer B (10 mM Tris-HCl, pH 7.4, 1 mM CaCl2), 1 mM PMSF) and collected by centrifugation at 2800 g for 10 minutes. Pellets were resuspended in buffer B and treated with 100 U/mL micrococcal nuclease for 40 minutes at 37° C. The reaction was terminated by the addition of 2 mM EDTA and was centrifuged at 2800 g for 10 minutes. The nuclei were then lysed by resuspending the pellet in 1 mM EDTA and 1 mM PMSF and passing the mixture through a 22G needle 4 to 5 times. The solution was then centrifuged at 15,000 g for 20 minutes and the supernatant was collected. The remaining pellet was lysed through the syringe twice more and the supernatants were pooled after centrifugation. The pooled supernatants were further purified by size exclusion chromatography (GE Sephacryl S300 HR 50/100) in buffer C (10 mM HEPES, pH 7.5, 10 mM KCl, 1 mM EDTA, 1 mM PMSF, 10% glycerol). Fractions were analyzed by agarose gel electrophoresis and SDS-PAGE and fractions containing mononucleosomes were pooled and stored at −80° C.
The SMARCA2 or SMARCA4 ATPase assays were identical. The SMARCA2 or SMARCA4 ATPase assays were performed in a buffer consisting of 20 mM Bicine (pH 7.5), 10 mM KCl, 1 mM MgCl2, 1 mM TCEP, 0.005% BSG, and 0.002% Tween 20, prepared on the day of use. Compounds in 100% DMSO were 3-fold serially diluted to produce a 10 point curve for IC50 determination and 0.2 uL were transferred into polypropylene 384-well V-bottom plates (Greiner) using an Echo liquid handler (Labcyte). DMSO (0.2 uL) was added to Columns 11, 12, 23, 24, rows A-H for the maximum signal control and 0.2 uL doxorubicin, a known DNA intercalator, was added to columns 11, 12, 23, 24, rows I-P for the minimum signal control. The SMARCA2 or SMARCA4 enzyme (10 uL) was added to the compounds and allowed to incubate with the compounds for 30 min at room temperature. The SMARCA2 or SMARCA4 ATPase assay was initiated by the addition of 10 uL chicken mononucleosome and ATP mixture (final volume=20 uL). The final concentrations of the assay components were as follows: SMARCA2 or SMARCA4 was 5 nM, ATP was 250 uM, chicken mononucleosome was 10 nM, doxorubicin in the minimum signal control wells was 50 uM, and the DMSO concentration was 1%. 5 uL of the reaction mixture was transferred from the 384-well polypropylene plate to a white opaque polystyrene 384-well plate. At 60 minutes, the assays were terminated by the addition of 5 uL ADP-Glo™ Reagent (Promega). After 40 minutes, the luciferase reaction was initiated by the addition of 10 uL of Kinase Detection Reagent (Promega) and incubated for 1 hour. The ADP product generated from the SMARCA2 or SMARCA4 ATPase reaction was determined via luminescence intensity.

| Compound | IC50 [µM] |
| --- | --- |
| Cn1ccc(C#Cc2cc(C(=O)Nc3cc(F)c(=O)n(CC(F)F)c3)sc2Cl)cc1=O [Compound 65d] | 7.79 |
| CN1CC(C#Cc2cc(C(=O)Nc3cc(F)c(=O)n(CC(F)F)c3)sc2Cl)CCC1=O (stereo not drawn) [Compound 118d] | 0.544 |
| CN1CCCC(C#Cc2cc(C(=O)Nc3cc(F)c(=O)n(CC(F)F)c3)sc2Cl)C1 (stereo not drawn) [Compound 140d] | 1.77 |
| O=C(Nc1cc(F)c(=O)n(CC(F)F)c1)c1cc(C#CC2CNCCO2)c(Cl)s1 (stereo not drawn) [Compound 109d] | 3.16 |
| O=C(Nc1cc(F)c(=O)n(CC(F)F)c1)c1cc(C#Cc2cn3c(n2)COCC3)c(Cl)s1 [Compound 90d] | 2.71 |

same assay, conditions: FL-SMARCA4 IC50, Table 3.2; ATPase assay, enzyme 5 nM, ATP 250 uM, chicken mononucleosome 10 nM, 30 min preincubation

| Compound | IC50 [µM] |
| --- | --- |
| Cn1c(C(=O)Nc2cc(F)c(=O)n(CC(F)(F)F)c2)cc(Cl)c1Cl [Compound 144] | 1.17 |

same assay, conditions: FL-SMARCA4 IC>50, Table 3c.2; ATPase assay, enzyme 5 nM, ATP 250 uM, chicken mononucleosome 10 nM, 30 min preincubation

| Compound | IC50 [µM] |
| --- | --- |
| CNC(=O)c1cc(C#Cc2cc(C(=O)Nc3cc(F)c(=O)n(CC(F)F)c3)sc2Cl)nn1C [Compound 154c] | 0.147 |
| O=C(Nc1cc(F)c(=O)n(CC(F)F)c1)c1cc(C#Cc2cn3c(n2)CNCC3)c(Cl)s1 [Compound 147c] | 7.96 |
| CNC(=O)c1cncc(C#Cc2cc(C(=O)Nc3cc(F)c(=O)n(CC(F)F)c3)sc2Cl)c1 [Compound 129c] | 0.143 |
| O=C(Nc1cc(F)c(=O)n(CC(F)F)c1)c1cc(Cl)c(Cl)s1 [Compound 47c] | 0.177 |
| O=C(Nc1cc(F)c(=O)n(CC(F)F)c1)c1cc(C#Cc2csc(C(F)(F)F)n2)c(Cl)s1 [Compound 126c] | 0.957 |
| NC(=O)c1ccc(C#Cc2cc(C(=O)Nc3cc(F)c(=O)n(CC(F)F)c3)sc2Cl)cc1 [Compound 68c] | 0.121 |
| Cn1cc(C#Cc2cc(C(=O)Nc3cc(F)c(=O)n(CC(F)F)c3)sc2Cl)cn1 [Compound 5c] | 0.0759 |
| O=C(Nc1cc(F)c(=O)n(CC(F)F)c1)c1cc(C#CC2COC2)c(C(F)F)s1 [Compound 80c] | 0.494 |
| N#Cc1sc(C(=O)Nc2cc(F)c(=O)n(CC(F)F)c2)cc1C#Cc1ccncc1 [Compound 134c] | 0.0128 |
| O=C(Nc1cc(F)c(=O)n(CC(F)F)c1)c1sc(C(F)(F)F)cc1Cl [Compound 48c] | > 50 |
